{
  "source": "patent US20230024584A1",
  "about": "“ANTI-CANCER COMPOSITIONS AND METHODS” (University of Kentucky Research Foundation, priority 2019, published 2023)",
  "format_in_all_cases": "cell-based",
  "key": {"[1]": {"test_system": "H1975, PC9, PC9GR4 and H460 cells", "assay": "Clonogenic assay, lung cancer cell lines", "settings": "1.25, 2.5 or 5 μM for 72 h, then 10 days culture", "procedure": "Clonogenic assays were also performed to determine the effect of lomitapide treatment on various lung cancer cell lines, with data reflected in FIGS. 28A-28E. Initially, 100 H1975, PC9, PC9GR4, or H460 cells were seeded into 6-cm cell culture dishes. After overnight culture, vehicle control (DMSO) or lomitapide (final concentration: 1.25, 2.5 or 5 μM) were added into the corresponding dishes. After 72 h culture, the DMSO- or lomitapide-containing media were removed and the fresh culture media were added in followed by additional 10 days culture. The culture media were replaced with fresh media every three days. At the end of cell culture, the final clones in dishes were fixed by 4% paraformaldehyde and stained with crystal violet. FIG. 28A includes representative images from each treatment groups. FIGS. 28B-28E include quantitation of clone numbers (mean±standard deviation, n=3). * p<0.05, compared to vehicle control (negative control) treatment group."}, "PC9GR4 and A549 cells [2]": {"test_system": "PC9GR4 and A549 cells", "assay": "Apoptosis (7-AAD/APC-annexin V flow cytometry), lung cancer cells", "settings": "1.25, 2.5 or 5 μM, 48 h", "procedure": "With reference to FIGS. 29A and 29B, studies were also conducted to determine the effect of lomitapide treatment on apoptosis of lung cancer cells. Initially, 0.1-0.3 million PC9GR4 or A549 cells were seeded into 6 cm cell culture dishes and cultured overnight. Vehicle control (DMSO) or lomitapide (final concentration: 1.25, 2.5 or 5 μM) was added then into corresponding dishes. After 48 h incubation, the cells were harvested, stained by 7-AAD/APC-annixin V and analyzed by flow cytometry. The results are presented as mean±standard deviation (n=3). * p<0.05, compared to vehicle control (negative control) treatment group."}, "breast cancer cells": {"test_system": "breast cancer cells", "assay": "Cell cycle analysis, breast cancer cells", "settings": "5 μM; 24, 48 and 72 h", "procedure": "Initially, 0.1˜0.3 million of breast cancer cells were seeded into 6 cm culture dish and cultured overnight; then, the culture media were switched into FBS free medium for serum-starvation for 24 h for cell synchronization. After synchronization, the culture media were changed into FBS-containing medium and vehicle control (DMSO) or lomitapide (final concentration: 5 μM) were added into corresponding dishes. After 24, 48 and 72 h culture, cells were harvested, fixed by ice-cold ethanol, stained by PI for flow cytometry analysis of cell cycle. The results are presented as mean±standard deviation (n=3). * p<0.05, compared to vehicle control (negative control) treatment group."}, "[3]": {"test_system": "SUM19, MCF-7, MDA-MB-453 and 4T1luc cells", "assay": "Suspension culture sphere formation assay, breast cancer cells", "settings": "1.25, 2.5 or 5 μM, 10 days", "procedure": "With reference to FIGS. 24A and 24B, the effect of lomitapide treatment on cancer stem cell-like property of breast cancer cells was further studied. Initially, 2500 breast cancer SUM19, MCF-7, MDA-MB-453 or 4T1^luc cells were seeded into […] 24-well plates; meanwhile, vehicle control (DMSO) or lomitapide (final concentration: 1.25, 2.5 or 5 μM) were added into corresponding wells. After 10-days continuous culture, the final spheres formed were imaged and counted under an inverted phase-contrast microscope. FIG. 24A includes representative sphere images from each treatment groups. FIG. 24B includes the quantitation of sphere numbers (mean±standard deviation, n=3). * p<0.05, compared to vehicle control (negative control) treatment group."}, "PC9GR4 and A549 cells [4]": {"test_system": "PC9GR4 and A549 cells", "assay": "Sphere formation assay, lung cancer cells", "settings": "1.25, 2.5 or 5 μM, 10 days", "procedure": "With reference to FIGS. 30A and 30B, studies were also conducted to determine the effect of lomitapide treatment on the cancer stem cell-like property of lung cancer cells. Initially, 2500 lung cancer PC9GR4 or A549 cells were seeded into […] 24-well plates; meanwhile, vehicle control (DMSO) or lomitapide (final concentration: 1.25, 2.5 or 5 μM) were added into corresponding wells. After 10-days continuous culture, the final spheres formed were imaged and counted under an inverted phase-contrast microscope. FIG. 30A includes representative sphere images from each treatment groups. FIG. 30B includes the quantitation of sphere numbers (mean±standard deviation, n=3). * p<0.05, compared to vehicle control (negative control) treatment group."}},
  "data": [
    {"substance": "lomitapide", "values": [
      {"measurement": "lung cancer cell growth (clone numbers)", "setting": "[1]", "value": "significantly reduces lung cancer cell growth"},
      {"measurement": "apoptosis", "setting": "PC9GR4 and A549 cells [2]", "value": "induces apoptosis"},
      {"measurement": "cell cycle distribution", "setting": "breast cancer cells", "value": "significant G1 phase cell cycle arrest"},
      {"measurement": "cancer stem cell-like property (sphere numbers)", "setting": "[3]", "value": "significantly reduces cancer stem cell-like property"},
      {"measurement": "cancer stem cell-like property (sphere numbers)", "setting": "PC9GR4 and A549 cells [4]", "value": "significantly reduces cancer stem cell-like property"}
    ]}
  ]
}
